Experiment [1] concerns the target c-Kit (Homo sapiens (Human), UniProt P10721). In words: Inhibition of c-Kit kinase activity (HTRF KinEASE-TK). Format: biochemical. The conditions noted are these: biochemical, HTRF KinEASE-TK. The method, boiled down: (§1)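 Phosphorylation of biotinylated TK peptide read by HTRF (665/620 nm ratio) after 120 min at rt, following 1 h enzyme–compound preincubation. ATP (2× mix): 20 μM CSF1R, 16 μM c-Kit, 40 μM PDGFRβ, 1 μM PDGFRα; MgCl2 10 mM except c-Kit 5 mM. 22-point 1:2 titration; four-parameter IC50.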

In experiment [2] the target is CSF1R (Homo sapiens (Human), UniProt P07333). Description: Inhibition of CSF1R kinase activity (HTRF KinEASE-TK). The conditions noted are these: biochemical, HTRF KinEASE-TK. The method, boiled down: as §1
Experiment [3] has as its target FLT3 (Homo sapiens (Human), UniProt P36888). Description: Inhibition of FLT3 kinase activity (HTRF KinEASE-TK). Type of experiment: biochemical. The conditions noted are these: biochemical, HTRF KinEASE-TK. Summed up:
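FLT3 tyrosine kinase activity was measured with the HTRF KinEASE-TK kit by following phosphorylation of a biotinylated TK peptide. After the 45 min reaction, 10 μL of detection mix was added: 0.2 μM (2×) Streptavidin-XL665 and 2 μM (2×) TK-Antibody-Cryptate in detection buffer. After 60 min, TR-FRET was read on an Envision as the 665 nm/620 nm emission ratio with 320 nm excitation.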
Background: Time-resolved FRET reads energy transfer from a long-lived donor to a nearby acceptor.

Experiment [4] has as its system Phospho-KIT (Y703) in M07e cells. In words: Phospho-KIT (Y703) cellular assay in M07e cells. Format: cell-based. The conditions noted are these: read-out: M07e Cell IC50. The method, boiled down:
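Serum-starved M07e cells preincubated 50 min at 37° C with 11-point half-log compound titration, then stimulated 10 min with SCF at 90.9 ng/mL final. Fixed, permeabilized cells stained for phospho-KIT Y703 and read by flow cytometry (live-gated geometric mean); IC50 by 4-parameter fit normalized to DMSO and positive control.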

In experiment [5] the target is PDGFRα (Homo sapiens (Human), UniProt P16234). In words: Inhibition of PDGFRα kinase activity (HTRF KinEASE-TK). To be noted: biochemical, HTRF KinEASE-TK. Summed up:
as §1

In experiment [6] the target is PDGFRβ (Homo sapiens (Human), UniProt P09619). Description: Inhibition of PDGFRβ kinase activity (HTRF KinEASE-TK). To be noted: biochemical, HTRF KinEASE-TK. The method, boiled down: as §1
Where [7] appears, read: M-07e, Phospho-KIT (Y703), M07e cells.

Results on 18 compounds are retold here after patent US20250145606A1 (Arcus Biosciences, Inc., priority 2023, published 2025).

Like-named read-outs stand apart in the source and are kept apart here.

CSF1R, sequence (P07333 20-972): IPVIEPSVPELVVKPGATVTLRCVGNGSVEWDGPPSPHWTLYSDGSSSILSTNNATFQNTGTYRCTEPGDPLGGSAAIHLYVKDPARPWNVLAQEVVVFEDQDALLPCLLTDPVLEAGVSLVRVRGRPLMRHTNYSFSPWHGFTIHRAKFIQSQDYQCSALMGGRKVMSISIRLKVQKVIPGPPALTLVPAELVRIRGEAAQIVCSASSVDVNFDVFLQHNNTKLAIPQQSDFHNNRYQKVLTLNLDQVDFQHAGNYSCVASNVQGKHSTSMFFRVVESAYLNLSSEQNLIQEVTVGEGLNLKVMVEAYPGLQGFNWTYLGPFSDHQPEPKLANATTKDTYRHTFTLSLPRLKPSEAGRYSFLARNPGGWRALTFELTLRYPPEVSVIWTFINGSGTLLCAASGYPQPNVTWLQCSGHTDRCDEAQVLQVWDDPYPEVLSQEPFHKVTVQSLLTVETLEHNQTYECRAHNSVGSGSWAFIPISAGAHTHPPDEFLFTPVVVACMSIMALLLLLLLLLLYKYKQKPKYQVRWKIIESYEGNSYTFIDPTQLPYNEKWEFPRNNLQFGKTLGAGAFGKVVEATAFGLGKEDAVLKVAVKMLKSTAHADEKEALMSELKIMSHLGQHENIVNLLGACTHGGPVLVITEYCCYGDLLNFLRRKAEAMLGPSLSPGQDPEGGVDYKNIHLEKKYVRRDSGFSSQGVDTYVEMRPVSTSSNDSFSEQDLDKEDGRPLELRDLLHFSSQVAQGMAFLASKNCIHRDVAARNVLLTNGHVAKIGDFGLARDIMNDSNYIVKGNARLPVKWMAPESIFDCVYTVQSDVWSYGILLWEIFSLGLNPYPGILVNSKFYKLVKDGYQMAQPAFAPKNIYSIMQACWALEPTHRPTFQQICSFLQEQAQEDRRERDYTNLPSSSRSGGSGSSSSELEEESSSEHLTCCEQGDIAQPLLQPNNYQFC
c-Kit, sequence (P10721 26-976): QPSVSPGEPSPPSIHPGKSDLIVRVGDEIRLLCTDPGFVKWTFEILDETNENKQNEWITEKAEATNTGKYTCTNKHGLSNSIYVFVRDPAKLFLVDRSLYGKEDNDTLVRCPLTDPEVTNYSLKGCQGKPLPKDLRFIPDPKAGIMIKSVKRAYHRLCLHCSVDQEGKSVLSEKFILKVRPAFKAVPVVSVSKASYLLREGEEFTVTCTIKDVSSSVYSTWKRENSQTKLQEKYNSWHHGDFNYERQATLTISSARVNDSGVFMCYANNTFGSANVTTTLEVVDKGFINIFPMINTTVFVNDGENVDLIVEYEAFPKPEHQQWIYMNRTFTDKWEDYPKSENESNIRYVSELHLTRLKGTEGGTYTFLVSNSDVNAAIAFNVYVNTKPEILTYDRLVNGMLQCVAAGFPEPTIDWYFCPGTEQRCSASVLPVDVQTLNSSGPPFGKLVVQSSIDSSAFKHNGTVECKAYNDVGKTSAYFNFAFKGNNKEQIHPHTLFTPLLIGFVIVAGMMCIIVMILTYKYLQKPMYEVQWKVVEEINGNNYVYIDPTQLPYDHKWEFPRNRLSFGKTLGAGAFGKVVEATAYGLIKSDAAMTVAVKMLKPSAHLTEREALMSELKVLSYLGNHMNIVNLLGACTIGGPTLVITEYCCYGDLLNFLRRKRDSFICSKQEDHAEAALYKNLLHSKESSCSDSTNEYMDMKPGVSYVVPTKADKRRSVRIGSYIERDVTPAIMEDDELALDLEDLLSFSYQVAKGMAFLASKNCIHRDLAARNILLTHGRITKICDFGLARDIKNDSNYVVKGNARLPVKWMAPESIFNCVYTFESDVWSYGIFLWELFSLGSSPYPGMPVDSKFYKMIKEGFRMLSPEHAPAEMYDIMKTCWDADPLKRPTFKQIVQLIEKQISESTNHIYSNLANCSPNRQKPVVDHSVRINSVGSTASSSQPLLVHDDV
PDGFRα, sequence (P16234 24-1089): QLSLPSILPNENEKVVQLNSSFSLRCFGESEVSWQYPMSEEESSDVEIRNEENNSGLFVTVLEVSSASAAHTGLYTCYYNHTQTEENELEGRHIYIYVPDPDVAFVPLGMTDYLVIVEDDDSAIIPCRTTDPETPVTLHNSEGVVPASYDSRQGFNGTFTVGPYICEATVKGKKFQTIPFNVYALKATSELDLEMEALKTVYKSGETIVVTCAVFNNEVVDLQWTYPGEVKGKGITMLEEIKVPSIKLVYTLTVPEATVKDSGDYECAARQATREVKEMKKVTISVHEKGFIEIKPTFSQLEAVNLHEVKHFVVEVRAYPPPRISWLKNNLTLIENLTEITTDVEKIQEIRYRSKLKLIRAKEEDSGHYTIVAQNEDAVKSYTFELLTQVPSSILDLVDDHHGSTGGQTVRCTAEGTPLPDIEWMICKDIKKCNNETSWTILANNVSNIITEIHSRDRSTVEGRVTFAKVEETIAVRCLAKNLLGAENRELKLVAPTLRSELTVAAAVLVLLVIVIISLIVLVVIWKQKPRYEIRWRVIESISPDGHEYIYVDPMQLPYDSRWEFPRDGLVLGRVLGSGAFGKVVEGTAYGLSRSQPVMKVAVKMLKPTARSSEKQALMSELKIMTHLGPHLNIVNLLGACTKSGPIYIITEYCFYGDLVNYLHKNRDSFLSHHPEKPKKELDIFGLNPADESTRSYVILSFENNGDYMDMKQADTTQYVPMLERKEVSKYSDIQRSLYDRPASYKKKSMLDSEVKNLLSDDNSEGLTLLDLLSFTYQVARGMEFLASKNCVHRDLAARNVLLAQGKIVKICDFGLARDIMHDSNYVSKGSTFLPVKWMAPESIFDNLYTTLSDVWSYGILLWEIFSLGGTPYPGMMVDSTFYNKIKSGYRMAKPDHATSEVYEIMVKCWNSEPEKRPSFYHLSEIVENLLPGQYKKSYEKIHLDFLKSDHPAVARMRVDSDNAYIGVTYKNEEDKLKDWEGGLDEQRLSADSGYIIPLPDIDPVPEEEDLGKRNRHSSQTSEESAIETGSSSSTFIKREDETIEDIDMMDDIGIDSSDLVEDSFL
PDGFRβ, sequence (P09619 33-1106): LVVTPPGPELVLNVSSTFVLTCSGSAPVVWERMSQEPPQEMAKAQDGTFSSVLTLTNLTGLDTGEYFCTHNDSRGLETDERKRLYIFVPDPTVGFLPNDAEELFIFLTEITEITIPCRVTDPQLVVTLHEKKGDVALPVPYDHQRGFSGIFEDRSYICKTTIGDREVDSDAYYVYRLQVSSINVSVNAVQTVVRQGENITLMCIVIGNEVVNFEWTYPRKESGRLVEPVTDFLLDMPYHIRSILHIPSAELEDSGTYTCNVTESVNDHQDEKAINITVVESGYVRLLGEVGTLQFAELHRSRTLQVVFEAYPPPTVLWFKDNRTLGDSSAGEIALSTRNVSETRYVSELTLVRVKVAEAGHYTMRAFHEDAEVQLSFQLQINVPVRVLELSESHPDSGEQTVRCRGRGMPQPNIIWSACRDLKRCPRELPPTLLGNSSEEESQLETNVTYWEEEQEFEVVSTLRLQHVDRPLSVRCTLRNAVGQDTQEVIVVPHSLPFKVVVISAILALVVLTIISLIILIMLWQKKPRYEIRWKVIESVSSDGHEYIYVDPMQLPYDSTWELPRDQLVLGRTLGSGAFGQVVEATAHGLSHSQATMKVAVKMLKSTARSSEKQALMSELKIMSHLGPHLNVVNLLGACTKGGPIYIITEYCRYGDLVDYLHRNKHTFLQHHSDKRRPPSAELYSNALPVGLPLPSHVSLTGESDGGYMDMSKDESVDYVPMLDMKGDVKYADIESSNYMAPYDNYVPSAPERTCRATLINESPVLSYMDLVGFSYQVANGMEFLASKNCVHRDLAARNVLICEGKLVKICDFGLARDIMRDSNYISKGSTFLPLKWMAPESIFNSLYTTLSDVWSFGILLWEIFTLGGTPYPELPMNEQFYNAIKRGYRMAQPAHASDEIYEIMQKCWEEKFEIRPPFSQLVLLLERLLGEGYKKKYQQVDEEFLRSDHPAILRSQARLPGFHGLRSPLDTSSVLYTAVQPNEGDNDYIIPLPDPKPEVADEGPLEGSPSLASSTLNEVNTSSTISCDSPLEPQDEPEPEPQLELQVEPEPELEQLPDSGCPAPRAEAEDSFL
FLT3, sequence (P36888 27-993): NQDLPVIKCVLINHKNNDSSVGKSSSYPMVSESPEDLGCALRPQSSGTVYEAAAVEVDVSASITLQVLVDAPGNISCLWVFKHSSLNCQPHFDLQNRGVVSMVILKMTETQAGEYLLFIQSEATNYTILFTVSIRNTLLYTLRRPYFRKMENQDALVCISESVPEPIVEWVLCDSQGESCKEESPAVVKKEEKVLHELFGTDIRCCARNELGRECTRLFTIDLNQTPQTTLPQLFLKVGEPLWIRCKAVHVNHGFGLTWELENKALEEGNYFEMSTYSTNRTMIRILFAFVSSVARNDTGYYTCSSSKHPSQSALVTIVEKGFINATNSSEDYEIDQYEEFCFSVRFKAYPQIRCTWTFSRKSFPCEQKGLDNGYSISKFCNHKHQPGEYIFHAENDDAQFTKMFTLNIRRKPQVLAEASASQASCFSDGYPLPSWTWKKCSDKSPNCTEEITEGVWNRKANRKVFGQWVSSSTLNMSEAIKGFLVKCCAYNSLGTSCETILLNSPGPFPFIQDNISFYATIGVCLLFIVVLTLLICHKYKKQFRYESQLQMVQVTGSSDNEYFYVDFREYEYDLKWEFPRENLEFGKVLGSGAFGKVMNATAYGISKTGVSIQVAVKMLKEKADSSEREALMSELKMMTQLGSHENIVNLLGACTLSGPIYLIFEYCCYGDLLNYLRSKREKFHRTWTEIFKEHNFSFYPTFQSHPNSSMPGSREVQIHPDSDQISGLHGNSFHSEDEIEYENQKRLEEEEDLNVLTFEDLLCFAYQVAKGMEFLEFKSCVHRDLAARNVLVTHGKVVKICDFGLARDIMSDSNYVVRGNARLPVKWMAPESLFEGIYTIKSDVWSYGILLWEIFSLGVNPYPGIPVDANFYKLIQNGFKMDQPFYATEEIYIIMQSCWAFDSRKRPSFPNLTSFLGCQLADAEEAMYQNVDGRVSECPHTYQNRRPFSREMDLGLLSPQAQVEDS

Take `Nc1ncc(C(=O)Nc2cc(C(=O)Nc3ccc(C(F)(F)F)cn3)c(F)cc2F)s1` [Example 216, 2-Amino-N-[2,4-difluoro-5-[[5-(trifluoromethyl)pyridin-2-yl]carbamoyl]phenyl]-1,3-thiazole-5-carboxamide]: the concentration for half-maximal inhibition (IC50) in experiment [1] is less than 100 nM; in experiment [2] it was 100 to 1000 nM; in experiment [3], greater than 1000 nM; in experiment [4] (setting [7]), less than 100 nM; in experiment [5], greater than 1000 nM; in experiment [6], greater than 1000 nM.
As for `Nc1ncc(C(=O)Nc2cc(C(=O)Nc3ccc(C(F)F)cn3)c(F)cc2F)s1` [Example 217, 2-Amino-N-[5-[[5-(difluoromethyl)pyridin-2-yl]carbamoyl]-2,4-difluorophenyl]-1,3-thiazole-5-carboxamide], the IC50 in experiment [1] was less than 100 nM; in experiment [2], greater than 1000 nM; in experiment [3], greater than 1000 nM; in experiment [4] (setting [7]), less than 100 nM; in experiment [5] it was greater than 1000 nM; in experiment [6], greater than 1000 nM.
For the compound `CC(C)Oc1ccc(NC(=O)c2cc(NC(=O)c3cnc(N)s3)c(F)cc2F)nc1` [Example 218, 2-Amino-N-[2,4-difluoro-5-[(5-propan-2-yloxypyridin-2-yl)carbamoyl]phenyl]-1,3-thiazole-5-carboxamide], the IC50 in experiment [1] was less than 100 nM; in experiment [2], greater than 1000 nM; in experiment [3] it was greater than 1000 nM; in experiment [4] (setting [7]), less than 100 nM; in experiment [5], greater than 1000 nM; in experiment [6], greater than 1000 nM.
Consider `Nc1ncc(C(=O)Nc2cc(C(=O)Nc3ccc(OC(F)F)cn3)c(F)cc2F)s1` [Example 219, 2-Amino-N-[5-[[5-(difluoromethoxy)pyridin-2-yl]carbamoyl]-2,4-difluorophenyl]-1,3-thiazole-5-carboxamide], for which the IC50 is less than 100 nM in experiment [1]; greater than 1000 nM in experiment [2]; greater than 1000 nM in experiment [3]; less than 100 nM in experiment [4] (setting [7]); greater than 1000 nM in experiment [5]; greater than 1000 nM in experiment [6].
Regarding `Nc1ncc(C(=O)Nc2cc(C(=O)Nc3ccc(OCC(F)(F)F)cn3)c(F)cc2F)s1` [Example 220, 2-Amino-N-[2,4-difluoro-5-[[5-(2,2,2-trifluoroethoxy)pyridin-2-yl]carbamoyl]phenyl]-1,3-thiazole-5-carboxamide], the IC50 in experiment [1] is less than 100 nM; in experiment [2], greater than 1000 nM; in experiment [3], greater than 1000 nM; in experiment [4] (setting [7]), less than 100 nM; in experiment [5], greater than 1000 nM; in experiment [6], greater than 1000 nM.
Regarding `Cc1cc(F)c(C(=O)Nc2ccc(C(F)F)cn2)cc1NC(=O)c1cnc(N)s1` [Example 226, 2-Amino-N-[5-[[5-(difluoromethyl)pyridin-2-yl]carbamoyl]-4-fluoro-2-methylphenyl]-1,3-thiazole-5-carboxamide], the IC50 in experiment [1] is less than 100 nM; in experiment [2], 100 to 1000 nM; in experiment [3] it was greater than 1000 nM; in experiment [4] (setting [7]), less than 100 nM; in experiment [5], greater than 1000 nM; in experiment [6] it was 100 to 1000 nM.
As for `Cc1cc(F)c(C(=O)Nc2ccc(OC3CC3)cc2)cc1NC(=O)c1cnc(N)s1` [Example 229, 2-Amino-N-[5-[(4-cyclopropyloxyphenyl)carbamoyl]-4-fluoro-2-methylphenyl]-1,3-thiazole-5-carboxamide], the IC50 in experiment [1] is less than 100 nM; in experiment [2] it was 100 to 1000 nM; in experiment [3], greater than 1000 nM; in experiment [4] (setting [7]), less than 100 nM; in experiment [5], less than 100 nM; in experiment [6], less than 100 nM.
On to `COc1ccc(NC(=O)c2cc(NC(=O)c3cnc(N)s3)c(C)cc2F)cc1` [Example 230, 2-Amino-N-[4-fluoro-5-[(4-methoxyphenyl)carbamoyl]-2-methylphenyl]-1,3-thiazole-5-carboxamide], for which the concentration for half-maximal inhibition (IC50) in experiment [1] is less than 100 nM; in experiment [2], 100 to 1000 nM; in experiment [3] it was greater than 1000 nM; in experiment [4] (setting [7]) it was less than 100 nM; in experiment [5], 100 to 1000 nM; in experiment [6], 100 to 1000 nM.
Turning to `Cc1cc(F)c(C(=O)Nc2ccc(Cl)cc2)cc1NC(=O)c1cnc(N)s1` [Example 231, 2-Amino-N-[5-[(4-chlorophenyl)carbamoyl]-4-fluoro-2-methylphenyl]-1,3-thiazole-5-carboxamide], the half-inhibitory concentration (IC50) in experiment [1] is less than 100 nM; in experiment [2], 100 to 1000 nM; in experiment [3], greater than 1000 nM; in experiment [4] (setting [7]), less than 100 nM; in experiment [5], 100 to 1000 nM; in experiment [6], 100 to 1000 nM.
Turning to `Cc1cc(F)c(C(=O)Nc2ccc(OC3CC3)cn2)cc1NC(=O)c1cnc(NC(=O)C2CC2)s1` [Example 238, 2-(Cyclopropanecarbonylamino)-NV-[5-[(5-cyclopropyloxypyridin-2-yl)carbamoyl]-4-fluoro-2-methylphenyl]-1,3-thiazole-5-carboxamide], the 50% inhibitory concentration (IC50) was less than 100 nM in experiment [1]; 100 to 1000 nM in experiment [2]; greater than 1000 nM in experiment [3]; less than 100 nM in experiment [4] (Phospho-KIT (Y703), M07e cells); 100 to 1000 nM in experiment [5]; less than 100 nM in experiment [6].
Turning to `CNc1ncc(C(=O)Nc2cc(C(=O)Nc3ccc(OC4CC4)cn3)c(F)cc2C)s1` [Example 241, N-[5-[(5-cyclopropyloxypyridin-2-yl)carbamoyl]-4-fluoro-2-methylphenyl]-2-(methylamino)-1,3-thiazole-5-carboxamide], the IC50 in experiment [1] is less than 100 nM; in experiment [2] it was greater than 1000 nM; in experiment [3] it was greater than 1000 nM; in experiment [4] (setting [7]), less than 100 nM; in experiment [5], greater than 1000 nM; in experiment [6], greater than 1000 nM.
With `COCC1(c2ccc(NC(=O)c3cc(NC(=O)c4cnc(N)s4)c(C)cc3F)nc2)CC1` [Example 244], the IC50 in experiment [1] is less than 100 nM; in experiment [2] it was 100 to 1000 nM; in experiment [3], greater than 1000 nM; in experiment [4] it was less than 100 nM; in experiment [5] it was greater than 1000 nM; in experiment [6], 100 to 1000 nM.
For the compound `COCCc1ccc(NC(=O)c2cc(NC(=O)c3cnc(N)s3)c(C)cc2F)nc1` [Example 245, 2-Amino-N-[4-fluoro-5-[[5-(2-methoxyethyl)pyridin-2-yl]carbamoyl]-2-methylphenyl]-1,3-thiazole-5-carboxamide], the 50% inhibitory concentration (IC50) is less than 100 nM in experiment [1]; greater than 1000 nM in experiment [2]; greater than 1000 nM in experiment [3]; less than 100 nM in experiment [4] (setting [7]); greater than 1000 nM in experiment [5]; greater than 1000 nM in experiment [6].
Regarding `Cc1cc(F)c(C(=O)Nc2ccc(COCC3CC3)cn2)cc1NC(=O)c1cnc(N)s1` [Example 251, 2-Amino-N-[5-[[5-(cyclopropylmethoxymethyl)pyridin-2-yl]carbamoyl]-4-fluoro-2-methylphenyl]-1,3-thiazole-5-carboxamide], the half-inhibitory concentration (IC50) in experiment [1] was less than 100 nM; in experiment [2], greater than 1000 nM; in experiment [3], greater than 1000 nM; in experiment [4] (setting [7]), less than 100 nM; in experiment [5] it was greater than 1000 nM; in experiment [6], greater than 1000 nM.
For `CCc1ccc(NC(=O)c2cc(NC(=O)c3cnc(N)s3)c(C)cc2F)nc1` [Example 255, 2-Amino-N-[5-[(5-ethylpyridin-2-yl)carbamoyl]-4-fluoro-2-methylphenyl]-1,3-thiazole-5-carboxamide], the 50% inhibitory concentration (IC50) in experiment [1] was less than 100 nM; in experiment [2], 100 to 1000 nM; in experiment [3], greater than 1000 nM; in experiment [4] (setting [7]), less than 100 nM; in experiment [5], 100 to 1000 nM; in experiment [6], 100 to 1000 nM.
On to `CO[C@H](C)c1ccc(NC(=O)c2cc(NC(=O)c3cnc(N)s3)c(C)cc2F)nc1` [Example 256, 2-Amino-N-[4-fluoro-5-[[5-[(1R)-1-methoxyethyl]pyridin-2-yl]carbamoyl]-2-methylphenyl]-1,3-thiazole-5-carboxamide], for which the IC50 in experiment [1] is less than 100 nM; in experiment [2], greater than 1000 nM; in experiment [3] it was greater than 1000 nM; in experiment [4] (setting [7]), less than 100 nM; in experiment [5], greater than 1000 nM; in experiment [6], 100 to 1000 nM.
As for `CO[C@@H](C)c1ccc(NC(=O)c2cc(NC(=O)c3cnc(N)s3)c(C)cc2F)nc1` [Example 257, 2-Amino-N-[4-fluoro-5-[[5-[(1S)-1-methoxyethyl]pyridin-2-yl]carbamoyl]-2-methylphenyl]-1,3-thiazole-5-carboxamide], the half-inhibitory concentration (IC50) in experiment [1] is less than 100 nM; in experiment [2] it was greater than 1000 nM; in experiment [3], greater than 1000 nM; in experiment [4] (setting [7]), less than 100 nM; in experiment [5] it was greater than 1000 nM; in experiment [6], 100 to 1000 nM.
On to `Cc1cc(F)c(C(=O)Nc2ccc(OC3CC3)nn2)cc1NC(=O)c1cnc(N)s1` [Example 258, 2-Amino-N-[5-[(6-cyclopropyloxypyridazin-3-yl)carbamoyl]-4-fluoro-2-methylphenyl]-1,3-thiazole-5-carboxamide], for which the IC50 in experiment [1] is less than 100 nM; in experiment [2] it was 100 to 1000 nM; in experiment [3] it was greater than 1000 nM; in experiment [4] (setting [7]) it was less than 100 nM; in experiment [5], 100 to 1000 nM; in experiment [6], 100 to 1000 nM.

As a reminder, the IC50 is the midpoint of a concentration-inhibition curve.
